Laboratory results as given in publication PMC3109356 (Bioorganic & medicinal chemistry letters, 2011).

Assays:
Assay type in all cases: binding
soluble MBP tag = soluble MBP tag (Escherichia coli, UniProt P0AEX9); assay: 1H STD NMR with soluble MBP tag as control
MBP-MshC = MBP-MshC (Mycobacterium tuberculosis, UniProt P9WJM9); assay: NOESY / transferred NOESY in the presence of MBP-MshC; conditions: free in solution vs in the presence of MBP-MshC
[1] = target: M. tuberculosis MshC (MBP-MshC) (Mycobacterium tuberculosis, UniProt P9WJM9); assay: 1H STD NMR in the presence of MBP-MshC; conditions: for STD relative enhancement for H-2″ / STD relative enhancement for H-3″: normalized to adenine H-2, 20 μM MBP-MshC, 900 μM ligand
MshC = MshC (Mycobacterium tuberculosis, UniProt P9WJM9); assay: isothermal titration calorimetry; conditions: ITC
Chain of MshC (P9WJM9 whole entry): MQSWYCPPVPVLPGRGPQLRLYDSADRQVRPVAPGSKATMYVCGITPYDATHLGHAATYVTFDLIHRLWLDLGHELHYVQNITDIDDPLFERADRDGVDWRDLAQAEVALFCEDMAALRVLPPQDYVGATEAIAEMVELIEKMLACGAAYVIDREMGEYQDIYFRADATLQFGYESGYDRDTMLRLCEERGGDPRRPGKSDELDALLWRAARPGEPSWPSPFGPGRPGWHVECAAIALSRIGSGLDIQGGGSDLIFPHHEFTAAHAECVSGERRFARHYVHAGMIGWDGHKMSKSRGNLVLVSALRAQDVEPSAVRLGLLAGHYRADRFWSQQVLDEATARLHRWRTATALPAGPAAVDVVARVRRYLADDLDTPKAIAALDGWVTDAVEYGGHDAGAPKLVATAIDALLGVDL

Chain of M. tuberculosis MshC (MBP-MshC) (P9WJM9 whole entry): as above
Chain of MBP-MshC (P9WJM9 whole entry): as above

| Structure (SMILES) | binding to the soluble MBP tag (soluble MBP tag) | NOESY/trNOESY cross peaks (binding) (MBP-MshC) | STD relative enhancement for H-2″ [1] [%] | STD relative enhancement for H-3″ [1] | heats of binding (MshC) | signal-to-noise (S/N) ratio in the STD difference spectra ([1]; in the presence of MshC, reference spectra S/N 170) |
| --- | --- | --- | --- | --- | --- | --- |
| Nc1ncnc2c1ncn2[C@@H]1O[C@H](COS(=O)(=O)NC(=O)[C@@H](N)CS)[C@@H](O)[C@H]1O [Compound 1, 5′-O-[N-(L-cysteinyl)sulfamoyl] adenosine] | No binding was observed | cross peaks changed in sign from positive to negative | 21 | 10% | – | – |
| Nc1ncnc2c1ncn2[C@@H]1O[C@H](COS(=O)(=O)NC(=O)[C@@H](N)CC(=O)O)[C@@H](O)[C@H]1O [Compound 3] | No binding was observed | did not contain any cross peaks | 12 | no effect could be observed | No heats of binding were detected | 20 |
